Converted amounts (≈) assume the structure as drawn. Read-outs that look alike come from different tables or passages of the source.
How the values were obtained:
Assay in all cases: Minimum Inhibitory Concentration (MIC), agar dilution, standard strains
E. faecalis EFS004 = assay type: cell-based; details: for MIC: Enterococcus faecalis, read-out: Minimum Inhibitory Concentration, E. faecalis EFS004
Method: (§1) The effectiveness of the compound according to the present invention was determined by obtaining Minimum Inhibitory Concentration (MIC) of the compounds prepared by the above examples (Compounds I-1 to I-41) and vancomycin, which is the known compound having a potent activity against gram-positive strains, as the control drug against the standard strains. Specifically, Minimum Inhibitory Concentration was obtained by diluting the test compound according to a double dilution method, dispersing them in Mueller-Hinton agar medium, inoculating each of the test strain having 10^7 cfu (colony forming unit) per ml in an amount of 2 μl to the medium and then incubating them at 37° C. for 20 hours. From the result of Minimum Inhibitory Concentration test, it can be seen that the compound according to the present invention has a good activity against major pathogenic microorganisms, which cause hospital infection, including MRSA strains.

S. epidermidis R005 = assay type: cell-based; details: for MIC: Staphylococcus epidermidis, read-out: Minimum Inhibitory Concentration, S. epidermidis R005
Method: as §1

[1] = test system: Staphylococcus aureus giorgio; assay type: cell-based; details: for MIC: Staphylococcus aureus, read-out: Minimum Inhibitory Concentration, Staphylococcus aureus giorgio
Method: as §1

S. aureus 77 = assay type: cell-based, Staphylococcus aureus; details: for MIC: read-out: Minimum Inhibitory Concentration, S. aureus 77
Method: as §1

S. aureus K311 = assay type: cell-based, Staphylococcus aureus; details: for MIC: Staphylococcus aureus, read-out: Minimum Inhibitory Concentration, S. aureus K311
Method: as §1

E. faecalis L239 = assay type: cell-based; details: Enterococcus faecalis, L239, 20 h, read-out: Minimum Inhibitory Concentration, E. faecalis L239
Method: as §1

S. aureus 241 = assay type: cell-based, Staphylococcus aureus; details: Staphylococcus aureus, 241, 20 h, read-out: Minimum Inhibitory Concentration, S. aureus 241
Method: as §1

[2] = EFS004, Table 2, Mueller-Hinton agar, 37° C., 20 hours
[3] = R005, Table 2, Mueller-Hinton agar, 37° C., 20 hours
[4] = Table 2, Mueller-Hinton agar, 37° C., 20 hours
[5] = Staphylococcus aureus, 77, Table 2, Mueller-Hinton agar, 37° C., 20 hours
[6] = K311, Table 2, Mueller-Hinton agar, 37° C., 20 hours

Q: What does the source list for `Nc1cc(N)nc(SC/C=C/C2=C(C(=O)O)N3C(=O)[C@@H](NC(=O)CSc4cc(Cl)nc(Cl)c4)[C@H]3SC2)n1` [Compound I-8, (6R,7R)-3-{(E)-3-[(4,6-diamino-2-pyrimidinyl)sulfanyl]-1-propenyl}-7-({2-[(2,6-dichloro-4-pyridinyl)sulfanyl]acetyl}amino)-8-oxo-5-thia-1-azabicyclo[4.2.0]oct-2-ene-2-carboxylic acid]?
A: MIC (E. faecalis EFS004; [2]): 1 µg/mL (≈ 1.67 µM); MIC (S. epidermidis R005; [3]): 0.5 µg/mL (≈ 0.833 µM); MIC [1, 4]: 0.031 µg/mL (≈ 0.0516 µM); MIC (S. aureus 77; [5]): 0.25 µg/mL (≈ 0.416 µM); MIC (S. aureus K311; [6]): 0.5 µg/mL (≈ 0.833 µM)

Q: Which results are given for `Nc1nc(SC/C=C/C2=C(C(=O)O)N3C(=O)[C@@H](NC(=O)CSc4cc(Cl)nc(Cl)c4)[C@H]3SC2)nc2[nH]ncc12` [Compound I-9, (6R,7R)-3-{(E)-3-[(4-amino-1H-pyrazolo[3,4-d]pyrimidin-6-yl)sulfanyl]-1-propenyl}-7-({2-[(2,6-dichloro-4-pyridinyl)sulfanyl]acetyl}amino)-8-oxo-5-thia-1-azabicyclo[4.2.0]oct-2-ene-2-carboxylic acid]?
A: MIC (E. faecalis EFS004; [2]): 1 µg/mL (≈ 1.6 µM); MIC (S. epidermidis R005; [3]): 0.5 µg/mL (≈ 0.799 µM); MIC [1, 4]: 0.031 µg/mL (≈ 0.0496 µM); MIC (S. aureus 77; [5]): 0.25 µg/mL (≈ 0.4 µM); MIC (S. aureus K311; [6]): 1 µg/mL (≈ 1.6 µM)

Q: What does the source list for `Nc1nc(O)cc(SC/C=C/C2=C(C(=O)O)N3C(=O)[C@@H](NC(=O)CSc4cc(Cl)nc(Cl)c4)[C@H]3SC2)n1` [Compound I-10, (6R,7R)-3-{(E)-3-[(2-amino-6-hydroxy-4-pyrimidinyl)sulfanyl]-1-propenyl}-7-({2-[(2,6-dichloro-4-pyridinyl)sulfanyl]acetyl}amino)-8-oxo-5-thia-1-azabicyclo [4.2.0]oct-2-ene-2-carboxylic acid]?
A: MIC (E. faecalis EFS004; [2]): 1 µg/mL (≈ 1.66 µM); MIC (S. epidermidis R005; [3]): 0.25 µg/mL (≈ 0.416 µM); MIC [1, 4]: 0.016 µg/mL (≈ 0.0266 µM); MIC (S. aureus 77; [5]): 0.25 µg/mL (≈ 0.416 µM); MIC (S. aureus K311; [6]): 0.5 µg/mL (≈ 0.831 µM)

Q: For `Nc1cc(SC/C=C/C2=C(C(=O)O)N3C(=O)[C@@H](NC(=O)CSc4cc(Cl)nc(Cl)c4)[C@H]3SC2)nc(N)n1` [Compound I-11, (6R,7R)-3-{(E)-3-[(2,6-diamino-4-pyrimidinyl)sulfanyl]-1-propenyl}-7-( {2-[(2,6-dichloro-4-pyridinyl)sulfanyl]acetyl}amino)-8-oxo-5-thia-1-azabicyclo[4.2.0]oct-2-ene-2-carboxylic acid], which MIC (E. faecalis EFS004; [2]) is on record?
A: The MIC was 2 µg/mL (≈ 3.33 µM).

Q: What about the MIC (S. epidermidis R005; [3]) of the same compound?
A: Its MIC is 0.5 µg/mL (≈ 0.833 µM).

Q: And the MIC [1, 4]?
A: The MIC was 0.016 µg/mL (≈ 0.0266 µM).

Q: And the MIC (S. aureus 77; [5])?
A: The MIC was 0.25 µg/mL (≈ 0.416 µM).

Q: What about the MIC (S. aureus K311; [6]) of the same compound?
A: Its MIC is 0.5 µg/mL (≈ 0.833 µM).

Q: Which MIC (E. faecalis EFS004; [2]) does the source give for `CCSc1nc(C)cc(SC/C=C/C2=C(C(=O)O)N3C(=O)[C@@H](NC(=O)CSc4cc(Cl)nc(Cl)c4)[C@H]3SC2)n1` [Compound I-12, (6R,7R)-7-({2-[(2,6-dichloro-4-pyridinyl)sulfanyl]acetyl}amino)-3-((E)-3-{[2-(ethylsulfanyl)-6-methyl-4-pyrimidinyl]sulfanyl}-1-propenyl)-8-oxo-5-thia-1-azabicyclo[4.2.0]oct-2-ene-2-carboxylic acid] here?
A: Its MIC is 0.5 µg/mL (≈ 0.776 µM).

Q: And the MIC (S. epidermidis R005; [3])?
A: The MIC was 0.5 µg/mL (≈ 0.776 µM).

Q: What about the MIC [1, 4] of the same compound?
A: The MIC was 0.031 µg/mL (≈ 0.0481 µM).

Q: And the MIC (S. aureus 77; [5])?
A: The MIC was 0.5 µg/mL (≈ 0.776 µM).

Q: And the MIC (S. aureus K311; [6])?
A: The MIC was 1 µg/mL (≈ 1.55 µM).

Q: With `Cn1c(N)n[n+]2c(SC/C=C/C3=C(C(=O)O)N4C(=O)[C@@H](NC(=O)CSc5cc(Cl)nc(Cl)c5)[C@H]4SC3)nc(N)cc12` [Compound I-14, 2,7-diamino-5-({(E)-3-[(6R,7R)-2-carboxy-7-({2-[(2,6-dichloro-4-pyridinyl)sulfanyl]acetyl}amino)-8-oxo-5-thia-1-azabicyclo[4.2.0]oct-2-en-3-yl]-2-propenyl}sulfanyl)-1-methyl-1H-[1,2,4]triazolo[1,5-c]pyrimidin-4-ium] as the compound, how does the “Minimum Inhibitory Concentration, E. faecalis EFS004” value (E. faecalis EFS004; [4]) read?
A: The value was 1 µg/mL.

Q: What about the “Minimum Inhibitory Concentration, S. epidermidis R005” value (S. epidermidis R005; [4]) of the same compound?
A: Its value is 0.13 µg/mL.

Q: What about the “Minimum Inhibitory Concentration, Staphylococcus aureus giorgio” value [1, 4] of the same compound?
A: Its value is <0.008 µg/mL.

Q: What about the “Minimum Inhibitory Concentration, S. aureus 77” value (S. aureus 77; [4]) of the same compound?
A: The value was 0.13 µg/mL.

Q: What about the “Minimum Inhibitory Concentration, S. aureus K311” value (S. aureus K311; [4]) of the same compound?
A: The value was 0.25 µg/mL.

Q: Which results are given for `O=C(CSc1cc(Cl)nc(Cl)c1)N[C@@H]1C(=O)N2C(C(=O)O)=C(/C=C/CSc3nc(O)cc(NCCO)n3)CS[C@H]12` [Compound I-15, (6R,7R)-7-({2-[(2,6-dichloro-4-pyridinyl)sulfanyl]acetyl}amino)-3-[(E)-3-({4-hydroxy-6-[(2-hydroxyethyl)amino]-2-pyrimidinyl]sulfanyl}-1-propenyl]-8-oxo-5-thia-1-azabicyclo[4.2.0]oct-2-ene-2-carboxylic acid]?
A: MIC (E. faecalis EFS004; [2]): 1 µg/mL (≈ 1.55 µM); MIC (S. epidermidis R005; [3]): 0.5 µg/mL (≈ 0.775 µM); MIC [1, 4]: 0.031 µg/mL (≈ 0.048 µM); MIC (S. aureus 77; [5]): 0.5 µg/mL (≈ 0.775 µM); MIC (S. aureus K311; [6]): 0.5 µg/mL (≈ 0.775 µM)

Q: How did the “Minimum Inhibitory Concentration, E. faecalis EFS004” value (E. faecalis EFS004; [4]) turn out when `CC[n+]1c(N)cc(N)nc1SC/C=C/C1=C(C(=O)O)N2C(=O)[C@@H](NC(=O)CSc3cc(Cl)nc(Cl)c3)[C@H]2SC1` [Compound I-16, 4,6-diamino-2-({(E)-3-[(6R,7R)-2-carboxy-7-({2-[(2,6-dichloro-4-pyridinyl)sulfanyl]acetyl}amino)-8-oxo-5-thia-1-azabicyclo[4.2.0]oct-2-en-3-yl]-2-propenyl}sulfanyl)-1-ethylpyrimidin-1-ium] was run?
A: The value was 0.5 µg/mL.

Q: What about the “Minimum Inhibitory Concentration, S. epidermidis R005” value (S. epidermidis R005; [4]) of the same compound?
A: Its value is 0.13 µg/mL.

Q: And the “Minimum Inhibitory Concentration, Staphylococcus aureus giorgio” value [1, 4]?
A: Its value is <0.008 µg/mL.

Q: What about the “Minimum Inhibitory Concentration, S. aureus 77” value (S. aureus 77; [4]) of the same compound?
A: Its value is 0.13 µg/mL.

Q: And the “Minimum Inhibitory Concentration, S. aureus K311” value (S. aureus K311; [4])?
A: The value was 0.5 µg/mL.

Q: What does the source list for `Nc1nc(SC/C=C/C2=C(C(=O)O)N3C(=O)[C@@H](NC(=O)CSc4cc(Cl)nc(Cl)c4)[C@H]3SC2)c2c([n+]1N)CCC2` [Compound I-17, 1,2-diamino-4-({(E)-3-[(6R,7R)-2-carboxy-7-({2-[(2,6-dichloro-4-pyridinyl)sulfanyl]acetyl}amino)-8-oxo-5-thia-1-azabicyclo[4.2.0]oct-2-en-3-yl]-2-propenyl}sulfanyl)-6,7-dihydro-5H-cyclopenta[d]pyrimidin-1-ium]?
A: Minimum Inhibitory Concentration, E. faecalis EFS004 (E. faecalis EFS004; [4]): 0.5 µg/mL; Minimum Inhibitory Concentration, S. epidermidis R005 (S. epidermidis R005; [4]): 0.25 µg/mL; Minimum Inhibitory Concentration, Staphylococcus aureus giorgio [1, 4]: <0.008 µg/mL; Minimum Inhibitory Concentration, S. aureus 77 (S. aureus 77; [4]): 0.25 µg/mL; Minimum Inhibitory Concentration, S. aureus K311 (S. aureus K311; [4]): 0.5 µg/mL

Q: Which “Minimum Inhibitory Concentration, E. faecalis EFS004” value (E. faecalis EFS004; [4]) does the source give for `Nc1cc(N)[n+](C/C=C/C2=C(C(=O)O)N3C(=O)[C@@H](NC(=O)CSc4cc(Cl)nc(Cl)c4)[C@H]3SC2)cn1` [Compound I-18] here?
A: Its value is 1 µg/mL.

Q: And the “Minimum Inhibitory Concentration, S. epidermidis R005” value (S. epidermidis R005; [4])?
A: Its value is 0.25 µg/mL.

Q: What about the “Minimum Inhibitory Concentration, Staphylococcus aureus giorgio” value [1, 4] of the same compound?
A: The value was 0.016 µg/mL.

Q: What about the “Minimum Inhibitory Concentration, S. aureus 77” value (S. aureus 77; [4]) of the same compound?
A: Its value is 0.25 µg/mL.

Q: What about the “Minimum Inhibitory Concentration, S. aureus K311” value (S. aureus K311; [4]) of the same compound?
A: Its value is 1 µg/mL.

Q: For `CN[C@H](CC(C)C)C(=O)N[C@H]1C(=O)N[C@@H](CC(N)=O)C(=O)N[C@H]2C(=O)N[C@H]3C(=O)N[C@H](C(=O)N[C@H](C(=O)O)c4cc(O)cc(O)c4-c4cc3ccc4O)[C@H](O)c3ccc(c(Cl)c3)Oc3cc2cc(c3O[C@@H]2O[C@H](CO)[C@@H](O)[C@H](O)[C@H]2O[C@H]2C[C@](C)(N)[C@H](O)[C@H](C)O2)Oc2ccc(cc2Cl)[C@H]1O` [Vancomycin, vancomycin, reference compound], which MIC (E. faecalis EFS004; EFS004, 20 h) is on record?
A: The MIC was 2 µg/mL (≈ 1.38 µM).

Q: And the MIC (E. faecalis L239)?
A: The MIC was 2 µg/mL (≈ 1.38 µM).

Q: And the MIC (S. epidermidis R005; R005, 20 h)?
A: Its MIC is 1 µg/mL (≈ 0.69 µM).

Q: And the “Minimum Inhibitory Concentration, S. epidermidis R005” value (S. epidermidis R005; [4])?
A: The value was 1 µg/mL.

Q: And the MIC ([1]; 20 h)?
A: Its MIC is 1 µg/mL (≈ 0.69 µM).

Q: What about the “Minimum Inhibitory Concentration, Staphylococcus aureus giorgio” value [1, 4] of the same compound?
A: Its value is 1 µg/mL.

Q: What about the MIC (S. aureus 241) of the same compound?
A: Its MIC is 2 µg/mL (≈ 1.38 µM).

Q: What about the MIC (S. aureus 77; Staphylococcus aureus, 77, 20 h) of the same compound?
A: Its MIC is 1 µg/mL (≈ 0.69 µM).

Q: What about the “Minimum Inhibitory Concentration, S. aureus 77” value (S. aureus 77; [4]) of the same compound?
A: The value was 1 µg/mL.

Q: What about the MIC (S. aureus K311; K311, 20 h) of the same compound?
A: Its MIC is 2 µg/mL (≈ 1.38 µM).

— patent US20030162762A1, “Novel cephalosporin compounds and process for preparing the same” (priority 2000, published 2003)
